The source of these data is patent US7868013B2, “Cycloalkyl substituted pyrimidinediamine compounds and their uses” (Rigel Pharmaceuticals, Inc., priority 2004, dated 2011).

Structures can show the parent of a compound that is named as a salt. Where two headings read alike, the source gives them in different places.

The subject of assay [1] is H1299 (non-small cell lung carcinoma). The assay can be described thus: In vitro antiproliferation assay, H1299 cells (TABLE 1 6 point assay; TABLE 2). The assay is classed as cell-based. The procedure: (§1) Certain compounds were tested against other cell types for their ability to inhibit proliferation in standard antiproliferation assays.
The test system of assay [2] is A549 (lung carcinoma). Description: In vitro antiproliferation assay, A549 cells (TABLE 1 6 point assay; TABLE 2). It counts as cell-based. The protocol:
as §1

The mark [3] stands for this setting: Homo sapiens, NCI-H1299, 6 point assay, H1299 cells, read-out: IC50, H1299 cells.
Where [4] appears, read: Homo sapiens, A549, 6 point assay, A549 cells, read-out: IC50, A549 cells.
[5] abbreviates: Homo sapiens, NCI-H1299, H1299 cells, 6 point assay, read-out: H1299, 6pt (IC50, inhibition of proliferation).
[6] abbreviates: Homo sapiens, A549, A549 cells, 6 point assay, read-out: A549, 6pt (IC50, inhibition of proliferation).

In the case of `Cc1cc(Nc2ncc(F)c(NC3C4CC5CC(C4)CC3C5)n2)ccc1N1CCN(C)CC1` (stereo not shown) [compound 258, N4-(2-Adamantyl)-5-fluoro-N2-[3-methyl-4-(4-methylpiperazin-1-yl)phenyl]-2,4-pyrimidinediamine], the IC50 in assay [1] (setting [3]) and in assay [2] (setting [4]) was 1 to 10 µM in each case.

With `Cc1cc(Nc2ncc(F)c(N[C@H]3[C@@H](C(N)=O)[C@@H]4C=C[C@H]3C4)n2)ccc1NC1CCN(C)CC1` [compound 272, (1R,2R,3S,4S)-N4-(3-Aminocarbonylbicyclo[2.2.1]hept-5-en-2-yl)-5-fluoro-N2-(3-methyl-4-(1-methylpiperidin-4-ylamino)phenyl]-2,4-pyrimidinediamine], the IC50 in assay [1] (setting [3]) and in assay [2] (setting [4]) was at most 0.1 µM each time.

Regarding `Cc1cc(Nc2ncc(F)c(NC3(C(=O)NC4CC4)CC=CC3)n2)ccc1N1CCN(C)CC1` [compound 244, N4-(1-Cyclopropylaminocarbonylcyclopent-3-en-1-yl)-5-fluoro-N2-[3-methyl-4-(4-methylpiperazin-1-yl)phenyl]-2,4-pyrimidinediamine], the IC50 in assay [1] (setting [3]) and in assay [2] (setting [4]) was over 10 µM in each case.

Regarding `Cc1ccc(Nc2ncc(F)c(NC3C4C=CC(C4)C3C(N)=O)n2)cc1OCC(=O)N1CCOCC1` (racemic) [compound 103, Racemic-(2-exo, 3-exo)-N4-(3-aminocarbonylbicyclo[2.2.1]hept-5-en-2-yl)-5-fluoro-N2-[4-methyl-3-(N-morpholinyl)carbonylmethyleneoxyphenyl]-2,4-pyrimidinediamine], the IC50 is at most 0.1 µM in assay [1] (setting [5]) and 0.1 to 1 µM in assay [2] (setting [6]).

Consider `CN1CCN(c2ccc(Nc3ncc(F)c(NC4C5C=CC(C5)C4C(N)=O)n3)cc2Cl)CC1` (racemic) [compound 233, Racemic-(2-exo,3-exo)-N4-(3-aminocarbonylbicyclo[2.2.1]hept-5-en-2-yl)-N2-[3-chloro-4-(4-methylpiperazin-1-yl)phenyl]-5-fluoro-2,4-pyrimidinediamine], for which the IC50 in assay [1] (setting [3]) and in assay [2] (setting [4]) was at most 0.1 µM in each case.

Take `CN1CCN(C(=O)CCCc2ccc(Nc3ncc(F)c(N[C@H]4CCC[C@H]4C(N)=O)n3)cc2)CC1` (racemic) [compound 278, Racemic-cis-N4-(2-aminocarbonylcyclopent-1-yl)-5-fluoro-N2-{4-[(4-methylpiperazin-1-yl)-butan-1-one-4-yl]phenyl}-2,4-pyrimidinediamine]: the IC50 in assay [1] (setting [3]) and in assay [2] (setting [4]) was 1 to 10 µM each time.

For `CN1CCC(c2cccc(Nc3ncc(F)c(N[C@H]4[C@@H](C(N)=O)[C@@H]5C=C[C@H]4C5)n3)c2)CC1` [compound 145, (1R,2R,3S,4S)-N4-(3-Aminocarbonylbicyclo[2.2.1]hept-5-en-2-yl)-5-fluoro-N2-[3-(1-methylpiperidin-4-yl)phenyl]-2,4-pyrimidinediamine Mono- Hydrochloric Acid Salt], the IC50 in assay [1] (setting [5]) and in assay [2] (setting [6]) was at most 0.1 µM in each case.

Consider `NC(=O)[C@@H]1CCC[C@@H]1Nc1nc(Nc2ccc3c(c2)NCC3)ncc1F` (racemic) [compound 156, Racemic-cis-N4-(2-aminocarbonylcyclopent-1-yl)-N2-(2,3-dihydroindol-6-yl)-5-fluoro-2,4-pyrimidinediamine], for which the IC50 in assay [1] (setting [5]) and in assay [2] (setting [6]) was 1 to 10 µM throughout.

Regarding `CN(C)CCN1CCc2cc(Nc3ncc(F)c(NC4C5CCC(C5)C4C(=O)NC4CC4)n3)ccc21` (racemic) [compound 178, Racemic-(2-exo,3-exo)-N4-[3-cyclopropylaminocarbonylbicyclo[2.2.1]hept-2-yl)-N2-[1-(2-dimethylaminoethyl)-2,3-dihydro-indol-5-yl]-5-fluoro-2,4-pyrimidinediamine], the IC50 in assay [1] (setting [5]) and in assay [2] (setting [6]) was at most 0.1 µM each time.

`Cc1cc(Nc2ncc(F)c(N[C@@H]3[C@H]4CC[C@H](C4)[C@@H]3C(=O)NC3CC3)n2)ccc1N1CCN(C)CC1` [compound 253, (1S,2R,3S,4R)-N4-(3-N-Cyclopropylaminocarbonylbicyclo[2.2.1]hept-2-yl)-5-fluoro-N2-[3-methyl-4-(4-methylpiperazin-1-yl)phenyl]-2,4-pyrimidinediamine]: the IC50 in assay [1] (setting [3]) and in assay [2] (setting [4]) was 0.1 to 1 µM throughout.

Turning to `CN1CCN(c2ccc(Nc3ncc(F)c(NC4CCCC4C(N)=O)n3)cc2Cl)CC1` (stereo not shown) [compound 202, N4-(2-Carboxamidocyclopentyl)-N2-[3-chloro-4-(4-methylpiperazino)phenyl]-5-fluoro-2,4-pyrimidinediamine], the IC50 in assay [1] (setting [3]) and in assay [2] (setting [4]) was 0.1 to 1 µM throughout.

`Cc1cc(Nc2ncc(F)c(NC3C4C=CC(C4)C3C(N)=O)n2)ccc1N1CC2CC1CC2C` (racemic) [Compound 285, Racemic-(2-exo,3-exo)-N4-(3-aminocarbonylbicyclo[2.2.1]hept-5-en-2-yl)-5-fluoro-N2-[3-methyl-4-(5-methyl-(1S,4S)-2,5-diazabicyclo[2.2.1]heptan-2-yl)]phenyl-2,4-pyrimidinediamine]: the IC50 in assay [1] (setting [3]) and in assay [2] (setting [4]) was at most 0.1 µM throughout.

As to `CNC(=O)COc1cc(Nc2ncc(F)c(N[C@H]3CCC[C@H]3C(N)=O)n2)ccc1C` (racemic) [compound 106, Racemic-cis-N4-(2-aminocarbonylcyclopent-1-yl)-5-fluoro-N2-[4-methyl-3-(N-methylamino)carbonylmethyleneoxyphenyl]-2,4-pyrimidinediamine], the IC50 in assay [1] (setting [5]) and in assay [2] (setting [6]) was 1 to 10 µM in each case.

As to `Cc1cc(Nc2ncc(F)c(N[C@@H]3[C@H](C(=O)NC(C)c4ccccc4)[C@H]4C=C[C@@H]3C4)n2)ccc1N1CCN(C)CC1` (stereo partly drawn) [compound 110, (1S,2S,3R,4R)-N4-5-Fluoro-N4-(3-(R)-alpha-methylbenzylaminocarbonylbicyclo[2.2.1]hept-5-en-2-yl)-N2-[3-methyl-4-(4-methylpiperazin-1-yl)phenyl]-2,4-pyrimidinediamine], the IC50 in assay [1] (setting [5]) and in assay [2] (setting [6]) was 0.1 to 1 µM each time.

`CCS(=O)(=O)N1CCN(c2ccc(Nc3ncc(F)c(N[C@H]4[C@@H](C(N)=O)[C@@H]5C=C[C@H]4C5)n3)cc2C)CC1` [compound 270, (1R,2R,3S,4S)-N4-(3-aminocarbonylbicyclo[2.2.1]hept-5-ene-2-yl)-N2-[3-methyl-4-(4-ethylsulfonylpiperazin-1-yl)phenyl]-5-fluoro-2,4-pyrimidinediamine Bis Hydrochloride Salt]: the IC50 was in the range of 1 to 10 µM in assay [1] (6 point assay, H1299 cells, Bis Hydrochloride Salt, read-out: IC50, H1299 cells) and 1 to 10 µM in assay [2] (6 point assay, A549 cells, Bis Hydrochloride Salt, read-out: IC50, A549 cells).

Consider `CCNC(=O)C1C2C=CC(C2)C1Nc1nc(Nc2ccc(N3CCN(C)CC3)c(C)c2)ncc1F` (racemic) [compound 167, Racemic-(2-exo,3-exo)-N4-[3-(N-ethyl)aminocarbonylbicyclo[2.2.1]hept-5-en-2-yl]-5-fluoro-N2-[3-methyl-4-(4-methylpiperazin-1-yl)phenyl]-2,4-pyrimidinediamine], for which the IC50 in assay [1] (setting [5]) and in assay [2] (setting [6]) was at most 0.1 µM throughout.

Turning to `CN1CCN(C(=O)CCc2ccc(Nc3ncc(F)c(N[C@H]4CCC[C@H]4C(N)=O)n3)cc2)CC1` (racemic) [compound 280, Racemic-cis-N4-(2-aminocarbonylcyclopent-1-yl)-5-fluoro-N2-{4-[(4-methylpiperazin-1-yl)-propan-1-one-3-yl]}phenyl-2,4-pyrimidinediamine], the IC50 in assay [1] (setting [3]) and in assay [2] (setting [4]) was 1 to 10 µM in each case.
